Results published in patent publication US20140088306A1, “RADIOACTIVE FLUORINE-LABELED QUINOXALINE COMPOUND” (Nihon Medi-Physics Co., Ltd., priority 2012, published 2014).
Like-named read-outs stand apart in the source and are kept apart here. Each block holds one compound with its values, some of them ahead of it.

What was measured:
amyloid plaques = test: Autoradiography using postmortem brain section of patient with Alzheimer's disease (Example 7); type: binding, human (Alzheimer's disease patient); conditions: brain section (temporal lobe) of Alzheimer's disease patient; 0.37 MBq/100 μL, 1 hour
Experimental: A postmortem autopsy brain section (temporal lobe) of a patient with Alzheimer's disease was incubated together with each of [^18F]E3, [^18F]D3, [^18F]E1, and [^18F]E2 (0.37 MBq/100 μL each) at room temperature for 1 hour. The resultant was washed with a 50 volume % ethanol aqueous solution (2 minutes×2) and water (2 minutes×2), and after drying, the section was contacted with BAS imaging plate (from Fujifilm Corporation) for 1.5 hours. The image of autoradiography was obtained using BAS5000 scanner system (from Fujifilm Corporation).
A section adjacent to the brain section used was immunostained in the following manner.
First, a paraffin-embedded brain section of the Alzheimer's disease patient (temporal lobe, 6 μm in thickness) was incubated with xylene (15 minutes×2), ethanol (1 minute×2), a 90 volume % ethanol aqueous solution (1 minute×2), and a 70 volume % ethanol aqueous solution (1 minute×1) in that order for complete deparaffinization, and then washed in water (2.5 minutes×2). Thereafter, the section was subjected to autoclave treatment for 15 minutes in 0.01 mol/L citrate buffer solution (pH 6.0). The resultant was incubated in PBS-Tween20 (5 minutes×2), and a mouse anti-Aβ1-42 primary monoclonal antibody (from Wako Pure Chemical Industries Ltd.) was then added thereto, which was then incubated at room temperature overnight. The resultant was incubated in PBS-Tween20 (2 minutes×3), and a biotin-goat anti-mouse IgG (from Funakoshi Co., Ltd.) was then added thereto, which was then incubated at room temperature for 1 hour. The resultant was incubated in PBS-Tween20 (5 minutes×3), and a streptavidin-peroxidase complex (from Funakoshi Co., Ltd.) was added thereto, which was then incubated at room temperature for 30 minutes. In addition, the resultant was incubated in PBS-Tween20 (2 minutes×3); 3,3′-diaminobenzidine was added thereto, which was then incubated at room temperature for 30 minutes; and after washing with water, the section was observed under a microscope to provide an immunostained image (FIG. 10).

[1] = In vivo radioactivity distribution experiment (Example 8); conditions: ddY mice, tail vein, SD in parenthesis
Experimental: Through the tail vein of ddY mice (male, 5 week-old) was injected each of a 10 volume % ethanol-containing saline solution of [^18F]E3 (45.4 kBq, 100 μL), a 10 volume % ethanol-containing saline solution of [^18F]D3 (38.2 kBq, 100 μL), a 10 volume % ethanol-containing saline solution of [^18F]E1 (45.1 kBq, 100 μL), and a 10 volume % ethanol-containing saline solution of [^18F]E2 (40.6 kBq, 100 μL). Five mice were used for each group and sacrificed 2, 10, 30, and 60 minutes after administration to remove major organs. The blood and organs were weighed and further measured for radioactivity using a γ counter. The amount of radioactivity per unit mass was measured in each organ to evaluate radioactivity distribution.

Aβ1-42 aggregates = target: T1, Aβ1-42 aggregates (Homo sapiens, UniProt P05067); test: [^125I]IMPY binding inhibition experiment (Example 5); conditions: for binding property to Aβ1-42 aggregates: [^125I]IMPY binding inhibition, result in words
T1 construct: Aβ1-42 aggregates (Peptide Institute, Inc, Osaka) were dissolved in 0.1 mol/L phosphate-buffered saline; purchased Peptide Institute, Inc., Osaka
T1 sequence (P05067 672-713 limits assumed): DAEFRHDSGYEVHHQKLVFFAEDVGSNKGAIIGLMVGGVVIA
Experimental: Aβ1-42 aggregates (Peptide Institute, Inc, Osaka) were dissolved in 0.1 mol/L phosphate-buffered saline (hereinafter referred to as PBS) to 0.25 mg/mL and incubated at 37° C. for 42 hours to prepare an Aβ1-42 aggregate PBS solution. This was further diluted 1:100 with PBS to 2.5 μg/mL and used for an assay.
The mixture was filtered through Whatman (R) GF/B filter, and a γ counter was used to measure the radioactivity of the filter. The measured radioactivity values were used to prepare an inhibition curve to calculate IC50. In addition, the following mathematical expression (1):
was used to calculate an inhibition constant (Ki).

[2] = inhibition of [^125I]IMPY binding to Aβ1-42 aggregates

Compound: 4-(7-(2-[^18F]Fluoroethoxy)quinoxalin-2-yl)-N,N-dimethylaniline [[^18F]E3]
visualization of gray matter / amyloid plaques by autoradiography (amyloid plaques): amyloid plaques were visualized
Radioactivity Amount, Blood ([1]; 2 min. after): 2.26 (0.21) % injected dose/g
Radioactivity Amount, Blood ([1]; 10 min. after): 1.91 (0.68) % injected dose/g
Radioactivity Amount, Blood ([1]; 30 min. after): 2.42 (0.17) % injected dose/g
Radioactivity Amount, Blood ([1]; 60 min. after): 2.38 (0.25) % injected dose/g
Radioactivity Amount, Bone ([1]; 2 min. after): 2.45 (0.43) % injected dose/g
Radioactivity Amount, Bone ([1]; 10 min. after): 2.20 (0.09) % injected dose/g
Radioactivity Amount, Bone ([1]; 30 min. after): 2.10 (0.39) % injected dose/g
Radioactivity Amount, Bone ([1]; 60 min. after): 2.02 (0.36) % injected dose/g
Radioactivity Amount, Brain ([1]; 2 min. after): 5.78 (0.60) % injected dose/g
Radioactivity Amount, Brain ([1]; 10 min. after): 3.82 (0.33) % injected dose/g
Radioactivity Amount, Brain ([1]; 30 min. after): 1.85 (0.09) % injected dose/g
Radioactivity Amount, Brain ([1]; 60 min. after): 1.48 (0.07) % injected dose/g
Radioactivity Amount, Heart ([1]; 2 min. after): 6.12 (0.79) % injected dose/g
Radioactivity Amount, Heart ([1]; 10 min. after): 3.48 (0.56) % injected dose/g
Radioactivity Amount, Heart ([1]; 30 min. after): 2.43 (0.12) % injected dose/g
Radioactivity Amount, Heart ([1]; 60 min. after): 2.22 (0.08) % injected dose/g
Radioactivity Amount, Intestine ([1]; 2 min. after): 3.24 (0.43) % injected dose/g
Radioactivity Amount, Intestine ([1]; 10 min. after): 7.95 (1.28) % injected dose/g
Radioactivity Amount, Intestine ([1]; 30 min. after): 16.2 (1.71) % injected dose/g
Radioactivity Amount, Intestine ([1]; 60 min. after): 17.9 (3.64) % injected dose/g
Radioactivity Amount, Kidney ([1]; 2 min. after): 8.65 (0.88) % injected dose/g
Radioactivity Amount, Kidney ([1]; 10 min. after): 5.19 (0.88) % injected dose/g
Radioactivity Amount, Kidney ([1]; 30 min. after): 3.30 (0.27) % injected dose/g
Radioactivity Amount, Kidney ([1]; 60 min. after): 3.51 (1.21) % injected dose/g
Radioactivity Amount, Liver ([1]; 2 min. after): 11.9 (1.35) % injected dose/g
Radioactivity Amount, Liver ([1]; 10 min. after): 11.7 (0.80) % injected dose/g
Radioactivity Amount, Liver ([1]; 30 min. after): 7.11 (1.56) % injected dose/g
Radioactivity Amount, Liver ([1]; 60 min. after): 5.30 (0.82) % injected dose/g
Radioactivity Amount, Lung ([1]; 2 min. after): 5.74 (0.48) % injected dose/g
Radioactivity Amount, Lung ([1]; 10 min. after): 4.02 (0.32) % injected dose/g
Radioactivity Amount, Lung ([1]; 30 min. after): 2.80 (0.15) % injected dose/g
Radioactivity Amount, Lung ([1]; 60 min. after): 2.20 (0.14) % injected dose/g
Radioactivity Amount, Pancreas ([1]; 2 min. after): 6.82 (0.80) % injected dose/g
Radioactivity Amount, Pancreas ([1]; 10 min. after): 3.51 (0.37) % injected dose/g
Radioactivity Amount, Pancreas ([1]; 30 min. after): 2.31 (0.19) % injected dose/g
Radioactivity Amount, Pancreas ([1]; 60 min. after): 1.60 (0.18) % injected dose/g
Radioactivity Amount, Spleen ([1]; 2 min. after): 3.67 (0.40) % injected dose/g
Radioactivity Amount, Spleen ([1]; 10 min. after): 2.89 (0.37) % injected dose/g
Radioactivity Amount, Spleen ([1]; 30 min. after): 2.31 (0.21) % injected dose/g
Radioactivity Amount, Spleen ([1]; 60 min. after): 1.74 (0.05) % injected dose/g
Radioactivity Amount, Stomach* ([1]; 2 min. after): 1.07 (0.20) % injected dose per organ
Radioactivity Amount, Stomach* ([1]; 10 min. after): 2.54 (0.88) % injected dose per organ
Radioactivity Amount, Stomach* ([1]; 30 min. after): 2.02 (0.63) % injected dose per organ
Radioactivity Amount, Stomach* ([1]; 60 min. after): 1.42 (0.22) % injected dose per organ

Ki (Aβ1-42 aggregates): 0.947 nM
binding property to Aβ1-42 aggregates (Aβ1-42 aggregates): sufficiently high binding property
Compound: CN(C)c1ccc(-c2cnc3cc(OCCF)ccc3n2)cc1 [Compound D3, 4-(6-(2-Fluoroethoxy)quinoxalin-2-yl)-N,N-dimethylaniline]

Ki (Aβ1-42 aggregates; [2]): 1180 nM
Compound: Nc1ccc(-c2cnc3ccc(OCCF)cc3n2)cc1 [Compound E1, 4-(7-(2-Fluoroethoxy)quinoxalin-2-yl)aniline]
binding property to Aβ1-42 aggregates (Aβ1-42 aggregates): not each confirmed to have a sufficient binding property

Ki (Aβ1-42 aggregates; [2]): 758 nM
Compound: CNc1ccc(-c2cnc3ccc(OCCF)cc3n2)cc1 [Compound E2, 4-(7-(2-Fluoroethoxy)quinoxalin-2-yl)-N-methylaniline]
binding property to Aβ1-42 aggregates (Aβ1-42 aggregates): not each confirmed to have a sufficient binding property

Compound: CN(C)c1ccc(-c2cnc3ccc(OCCF)cc3n2)cc1 [Compound E3, 4-(7-(2-Fluoroethoxy)quinoxalin-2-yl)-N,N-dimethylaniline]
binding property to Aβ1-42 aggregates (Aβ1-42 aggregates): sufficiently high binding property
Ki (Aβ1-42 aggregates; [2]): 111 nM

Compound: Nc1ccc(-c2cnc3ccc(OCC[18F])cc3n2)cc1 [[^18F]E1, 4-(7-(2-[^18F]Fluoroethoxy)quinoxalin-2-yl)aniline]
visualization of gray matter / amyloid plaques by autoradiography (amyloid plaques): did not visualize the gray matter but rather strongly visualized the white matter
Radioactivity Amount, Liver ([1]; 2 min. after): 9.18 (1.45) % injected dose/g
Radioactivity Amount, Liver ([1]; 10 min. after): 12.1 (1.82) % injected dose/g
Radioactivity Amount, Liver ([1]; 30 min. after): 8.76 (1.01) % injected dose/g
Radioactivity Amount, Liver ([1]; 60 min. after): 6.52 (0.93) % injected dose/g
